Assay results taken from the supplement of paper PMC10307832.

What was measured:
Assay in all cases: relative viability (nuclei count vs DMSO), 5 days (fraction); higher = more cells survive
GW-2580 + Phenformin = compound: COC1=CC=C(C=C1)COC2=C(C=C(C=C2)CC3=CN=C(N=C3N)N)OC [GW-2580] + N=C(N)NC(=N)NCCc1ccccc1 [Phenformin] (partner 250 µM)
Summary of the method: (§1)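 Lung cancer cell lines, seeded in 1536-well plates, were treated the following day by pin tool with a single drug or with five library-drug doses (not always all listed) in √10 steps on top of a fixed anchor-drug dose. Cells were fixed and nuclei stained in one step after 5 days, and nuclei were counted. Relative viability is the nuclei count for treated wells divided by that for vehicle wells, reported as medians of duplicate plates.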

GW-2580 + Olaparib = compound: COC1=CC=C(C=C1)COC2=C(C=C(C=C2)CC3=CN=C(N=C3N)N)OC [GW-2580] + O=C(c1cc(Cc2n[nH]c(=O)c3ccccc23)ccc1F)N1CCN(C(=O)C2CC2)CC1 [Olaparib] (partner 8 µM)
Summary of the method: as §1

Fedratinib + Trametinib = compound: Cc1cnc(Nc2ccc(OCCN3CCCC3)cc2)nc1Nc1cccc(S(=O)(=O)NC(C)(C)C)c1 [Fedratinib] + CC(=O)Nc1cccc(-n2c(=O)n(C3CC3)c(=O)c3c(Nc4ccc(I)cc4F)n(C)c(=O)c(C)c32)c1 [Trametinib] (partner 0.02 µM)
Summary of the method: as §1

Fedratinib + OSI-027 = compound: Cc1cnc(Nc2ccc(OCCN3CCCC3)cc2)nc1Nc1cccc(S(=O)(=O)NC(C)(C)C)c1 [Fedratinib] + COc1cccc2cc(-c3nc([C@H]4CC[C@H](C(=O)O)CC4)n4ncnc(N)c34)[nH]c12 [OSI-027] (partner 0.5 µM)
Summary of the method: as §1

Fedratinib + Crizotinib = compound: Cc1cnc(Nc2ccc(OCCN3CCCC3)cc2)nc1Nc1cccc(S(=O)(=O)NC(C)(C)C)c1 [Fedratinib] + C[C@@H](Oc1cc(-c2cnn(C3CCNCC3)c2)cnc1N)c1c(Cl)ccc(F)c1Cl [Crizotinib] (partner 1 µM)
Summary of the method: as §1

Cell Line | relative viability (GW-2580 + Phenformin; first compound 0.08 µM) | relative viability (GW-2580 + Phenformin; first compound 0.8 µM) | relative viability (GW-2580 + Phenformin; first compound 2.53 µM) | relative viability (GW-2580 + Phenformin; first compound 8 µM) | relative viability (GW-2580 + Olaparib; first compound 0.08 µM) | relative viability (GW-2580 + Olaparib; first compound 0.8 µM) | relative viability (GW-2580 + Olaparib; first compound 2.53 µM) | relative viability (GW-2580 + Olaparib; first compound 8 µM) | relative viability (Fedratinib + Trametinib; first compound 0.1 µM) | relative viability (Fedratinib + Trametinib; first compound 0.3162 µM) | relative viability (Fedratinib + Trametinib; first compound 1 µM) | relative viability (Fedratinib + OSI-027; first compound 0.1 µM) | relative viability (Fedratinib + OSI-027; first compound 0.3162 µM) | relative viability (Fedratinib + OSI-027; first compound 1 µM) | relative viability (Fedratinib + Crizotinib; first compound 0.1 µM) | relative viability (Fedratinib + Crizotinib; first compound 0.3162 µM) | relative viability (Fedratinib + Crizotinib; first compound 1 µM)
NCI-H2228 | 0.395 | 0.371 | 0.358 | 0.318 | 0.667 | 0.828 | 0.785 | 0.635 | 0.629 | 0.306 | 0.404 | 0.62 | 0.507 | 0.482 | 0.528 | 0.46 | 0.392
PC-14 | 0.358 | 0.82 | 0.494 | 0.615 | 0.243 | 0.247 | 0.242 | 0.295 | 0.692 | 0.871 | 0.554 | 0.746 | 0.88 | 0.633 | 0.926 | 0.874 | 0.92
NCI-H1437 | 0.339 | 0.31 | 0.332 | 0.357 | 0.672 | 0.662 | 0.631 | 0.602 | 0.492 | 0.561 | 0.564 | 0.911 | 0.924 | 0.825 | 0.999 | 0.883 | 0.922
NCI-H460 | 0.713 | 0.576 | 0.494 | 0.528 | 0.379 | 0.508 | 0.516 | 0.353 | 0.163 | 0.156 | 0.061 | 0.642 | 0.645 | 0.507 | 0.47 | 0.767 | 0.812
NCI-H1666 | 0.581 | 0.607 | 0.604 | 0.554 | 0.758 | 0.757 | 0.794 | 0.737 | 1 | 0.824 | 0.861 | 0.837 | 0.793 | 0.898 | 1.03 | 0.994 | 0.843
NCI-H1651 | 0.36 | 0.371 | 0.304 | 0.358 | 0.175 | 0.183 | 0.196 | 0.197 | 0.778 | 0.826 | 0.859 | 0.707 | 0.653 | 0.62 | 0.931 | 0.875 | 0.808
NCI-H1755 | 0.667 | 0.631 | 0.326 | 0.594 | 0.984 | 0.905 | 0.737 | 0.785 | 0.822 | 0.696 | 0.73 | 0.601 | 0.757 | 0.651 | 0.858 | 0.862 | 0.802
NCI-H661 | 0.269 | 0.282 | 0.282 | 0.271 | 0.807 | 0.813 | 0.722 | 0.665 | 0.511 | 0.622 | 0.409 | 0.729 | 0.735 | 0.55 | 0.964 | 0.948 | 1.04
HARA | 0.461 | 0.524 | 0.328 | 0.304 | 0.624 | 1.19 | 0.895 | 0.726 | 0.521 | 0.907 | 0.546 | 0.494 | 0.575 | 0.291 | 1.16 | 1.04 | 1.05
NCI-H596 | 0.92 | 0.657 | 0.811 | 0.804 | 0.8 | 0.746 | 0.715 | 0.651 | 0.739 | 0.804 | 0.755 | 0.577 | 0.727 | 0.746 | 0.983 | 1.01 | 0.973
NCI-H23 | 0.872 | 0.768 | 0.798 | 0.851 | 0.329 | 0.329 | 0.321 | 0.273 | 0.373 | 0.395 | 0.306 | 0.579 | 0.654 | 0.525 | 0.305 | 0.475 | 0.41
LCLC-97TM1 | 0.443 | 0.469 | 0.438 | 0.454 | 0.379 | 0.579 | 0.313 | 0.428 | 0.234 | 0.202 | 0.18 | 0.715 | 0.504 | 0.452 | 0.353 | 0.24 | 0.334
EPLC-272H | 0.272 | 0.339 |  | 0.354 | 0.819 | 0.861 | 0.755 | 0.605 | 0.275 | 0.281 | 0.278 | 0.276 | 0.289 | 0.114 | 1 | 0.87 | 0.757
NCI-H1915 | 0.392 | 0.368 | 0.362 | 0.38 | 0.222 | 0.233 | 0.293 | 0.259 | 0.307 | 0.28 | 0.275 | 0.612 | 0.67 | 0.319 | 0.942 | 0.866 | 0.777
NCI-H2405 | 0.401 | 0.393 | 0.308 | 0.333 | 0.911 | 0.981 | 0.797 | 0.712 | 0.582 | 0.584 | 0.57 | 0.601 | 0.618 | 0.61 | 0.796 | 0.849 | 0.818
NCI-H322M | 0.787 | 0.819 | 0.866 | 0.782 | 0.76 | 0.956 | 0.753 | 0.626 | 0.439 | 0.481 | 0.508 | 0.548 | 0.566 | 0.462 | 0.949 | 0.877 | 0.966
NCI-H2170 | 0.442 | 0.345 | 0.37 | 0.336 | 0.616 | 0.702 | 0.569 | 0.574 | 0.931 | 0.887 | 0.847 | 0.688 | 0.723 | 0.596 | 1.12 | 1.07 | 0.871
NCI-H358 | 0.365 | 0.518 | 0.36 | 0.353 | 0.652 | 0.658 | 0.635 | 0.621 | 0.126 | 0.125 | 0.111 | 0.594 | 0.892 | 0.47 | 0.427 | 0.608 | 0.374
